Reference: PubChem BioAssay (NCI)
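Method: 48-hour compound exposure of cells in 96-well plates, five concentrations, linear interpolation of endpoints. Abbreviation: GI50, concentration required for 50% inhibition of growth. TGI is the concentration that stops growth completely.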

Legend:
Assay in all cases: NCI tumour cell line growth inhibition, 48 h
SF-539 CNS = test system: SF-539 CNS
UACC-257 melanoma = test system: UACC-257 melanoma
NCI-H23 lung = test system: NCI-H23 lung
UO-31 renal = test system: UO-31 renal
SW-620 colon = test system: SW-620 colon
OVCAR-5 ovarian = test system: OVCAR-5 ovarian
OVCAR-3 ovarian = test system: OVCAR-3 ovarian
UACC-62 melanoma = test system: UACC-62 melanoma
PC-3 prostate = test system: PC-3 prostate
HOP-62 NSCLC = test system: HOP-62 NSCLC
SR leukemia = test system: SR leukemia
A498 renal = test system: A498 renal
SNB-75 CNS = test system: SNB-75 CNS
RXF 393 renal = test system: RXF 393 renal
LOX IMVI melanoma = test system: LOX IMVI melanoma
SK-MEL-2 melanoma = test system: SK-MEL-2 melanoma
A549 NSCLC = test system: A549 NSCLC
EKVX NSCLC = test system: EKVX NSCLC
HS 578T breast = test system: HS 578T breast
HCC-2998 colon = test system: HCC-2998 colon
MCF7 breast = test system: MCF7 breast
NCI-H226 lung = test system: NCI-H226 lung
SF-295 CNS = test system: SF-295 CNS
NCI-H460 lung = test system: NCI-H460 lung
MALME-3M melanoma = test system: MALME-3M melanoma
SF-268 CNS = test system: SF-268 CNS
MOLT-4 leukemia = test system: MOLT-4 leukemia
T-47D breast = test system: T-47D breast
SK-MEL-5 melanoma = test system: SK-MEL-5 melanoma
U251 CNS = test system: U251 CNS
TK-10 renal = test system: TK-10 renal
HL-60(TB) leukemia = test system: HL-60(TB) leukemia
COLO 205 colon = test system: COLO 205 colon
ACHN renal = test system: ACHN renal
SK-OV-3 ovarian = test system: SK-OV-3 ovarian
DU-145 prostate = test system: DU-145 prostate
HT29 colon = test system: HT29 colon
HCT-15 colon = test system: HCT-15 colon
HCT-116 colon = test system: HCT-116 colon
SN12C renal = test system: SN12C renal
786-0 renal = test system: 786-0 renal
K-562 leukemia = test system: K-562 leukemia
CCRF-CEM leukemia = test system: CCRF-CEM leukemia
M14 melanoma = test system: M14 melanoma
MDA-MB-435 = test system: MDA-MB-435
MDA-MB-231 breast = test system: MDA-MB-231 breast
OVCAR-8 ovarian = test system: OVCAR-8 ovarian
KM12 colon = test system: KM12 colon
SK-MEL-28 melanoma = test system: SK-MEL-28 melanoma
SNB-19 CNS = test system: SNB-19 CNS
HOP-92 NSCLC = test system: HOP-92 NSCLC
IGROV1 ovarian = test system: IGROV1 ovarian
NCI-H522 lung = test system: NCI-H522 lung
MDA-MB-468 breast = test system: MDA-MB-468 breast
RPMI-8226 leukemia = test system: RPMI-8226 leukemia
BT-549 breast = test system: BT-549 breast

**Q.** For `O=C1C=CC(=CC=C2N(Cc3ccc4ccccc4c3)c3ccccc3N2Cc2ccc3ccccc3c2)C=C1`, which GI50 (SF-539 CNS) is on record?
**A.** 1730 nM

**Q.** And the TGI (SF-539 CNS)?
**A.** 4070 nM

**Q.** And the GI50 (UACC-257 melanoma)?
**A.** 1680 nM

**Q.** What about the TGI (UACC-257 melanoma) of the same compound?
**A.** 3610 nM

**Q.** What about the GI50 (NCI-H23 lung) of the same compound?
**A.** 1250 nM

**Q.** And the TGI (NCI-H23 lung)?
**A.** 2700 nM

**Q.** And the GI50 (UO-31 renal)?
**A.** > 20700 nM

**Q.** What about the TGI (UO-31 renal) of the same compound?
**A.** > 100000 nM

**Q.** And the GI50 (SW-620 colon)?
**A.** 1260 nM

**Q.** And the TGI (SW-620 colon)?
**A.** 2660 nM

**Q.** And the GI50 (OVCAR-5 ovarian)?
**A.** 1720 nM

**Q.** What about the TGI (OVCAR-5 ovarian) of the same compound?
**A.** 4410 nM

**Q.** And the GI50 (OVCAR-3 ovarian)?
**A.** 904 nM

**Q.** And the TGI (OVCAR-3 ovarian)?
**A.** 2310 nM

**Q.** What about the GI50 (UACC-62 melanoma) of the same compound?
**A.** 1400 nM

**Q.** And the TGI (UACC-62 melanoma)?
**A.** 2820 nM

**Q.** And the GI50 (PC-3 prostate)?
**A.** 956 nM

**Q.** And the TGI (PC-3 prostate)?
**A.** 3100 nM

**Q.** And the GI50 (HOP-62 NSCLC)?
**A.** 2210 nM

**Q.** And the GI50 (SR leukemia)?
**A.** 902 nM

**Q.** What about the TGI (SR leukemia) of the same compound?
**A.** 3620 nM

**Q.** And the GI50 (A498 renal)?
**A.** 2890 nM

**Q.** And the TGI (A498 renal)?
**A.** > 26900 nM

**Q.** And the GI50 (SNB-75 CNS)?
**A.** 1180 nM

**Q.** And the TGI (SNB-75 CNS)?
**A.** 3180 nM

**Q.** And the GI50 (RXF 393 renal)?
**A.** 1330 nM

**Q.** What about the TGI (RXF 393 renal) of the same compound?
**A.** 2870 nM

**Q.** What about the GI50 (LOX IMVI melanoma) of the same compound?
**A.** 887 nM

**Q.** And the TGI (LOX IMVI melanoma)?
**A.** 2230 nM

**Q.** And the GI50 (SK-MEL-2 melanoma)?
**A.** 1580 nM

**Q.** What about the TGI (SK-MEL-2 melanoma) of the same compound?
**A.** 3010 nM

**Q.** And the GI50 (A549 NSCLC)?
**A.** 1530 nM

**Q.** What about the TGI (A549 NSCLC) of the same compound?
**A.** > 100000 nM

**Q.** What about the GI50 (EKVX NSCLC) of the same compound?
**A.** 1260 nM

**Q.** And the TGI (EKVX NSCLC)?
**A.** 3940 nM

**Q.** And the GI50 (HS 578T breast)?
**A.** 1470 nM

**Q.** What about the TGI (HS 578T breast) of the same compound?
**A.** 4080 nM

**Q.** And the GI50 (HCC-2998 colon)?
**A.** 1500 nM

**Q.** And the TGI (HCC-2998 colon)?
**A.** 3010 nM

**Q.** And the GI50 (MCF7 breast)?
**A.** 1190 nM

**Q.** What about the TGI (MCF7 breast) of the same compound?
**A.** 2540 nM

**Q.** What about the GI50 (NCI-H226 lung) of the same compound?
**A.** 1390 nM

**Q.** What about the TGI (NCI-H226 lung) of the same compound?
**A.** 2980 nM

**Q.** What about the GI50 (SF-295 CNS) of the same compound?
**A.** 1290 nM

**Q.** What about the TGI (SF-295 CNS) of the same compound?
**A.** 2870 nM

**Q.** What about the GI50 (NCI-H460 lung) of the same compound?
**A.** 654 nM

**Q.** What about the TGI (NCI-H460 lung) of the same compound?
**A.** 1960 nM

**Q.** What about the GI50 (MALME-3M melanoma) of the same compound?
**A.** 1410 nM

**Q.** And the TGI (MALME-3M melanoma)?
**A.** 3200 nM

**Q.** And the GI50 (SF-268 CNS)?
**A.** 2780 nM

**Q.** And the TGI (SF-268 CNS)?
**A.** 8810 nM

**Q.** And the GI50 (MOLT-4 leukemia)?
**A.** 1480 nM

**Q.** What about the TGI (MOLT-4 leukemia) of the same compound?
**A.** 4320 nM

**Q.** What about the GI50 (T-47D breast) of the same compound?
**A.** 1330 nM

**Q.** What about the TGI (T-47D breast) of the same compound?
**A.** 4750 nM

**Q.** And the GI50 (SK-MEL-5 melanoma)?
**A.** 697 nM

**Q.** What about the TGI (SK-MEL-5 melanoma) of the same compound?
**A.** 1690 nM

**Q.** What about the GI50 (U251 CNS) of the same compound?
**A.** 520 nM

**Q.** What about the TGI (U251 CNS) of the same compound?
**A.** 1780 nM

**Q.** What about the GI50 (TK-10 renal) of the same compound?
**A.** 2060 nM

**Q.** What about the TGI (TK-10 renal) of the same compound?
**A.** 5270 nM

**Q.** What about the GI50 (HL-60(TB) leukemia) of the same compound?
**A.** 385 nM

**Q.** What about the TGI (HL-60(TB) leukemia) of the same compound?
**A.** 1980 nM

**Q.** And the GI50 (COLO 205 colon)?
**A.** 1290 nM

**Q.** What about the TGI (COLO 205 colon) of the same compound?
**A.** 2740 nM

**Q.** What about the GI50 (ACHN renal) of the same compound?
**A.** 3590 nM

**Q.** And the TGI (ACHN renal)?
**A.** > 100000 nM

**Q.** What about the GI50 (SK-OV-3 ovarian) of the same compound?
**A.** 1720 nM

**Q.** What about the TGI (SK-OV-3 ovarian) of the same compound?
**A.** 5260 nM

**Q.** What about the GI50 (DU-145 prostate) of the same compound?
**A.** 2670 nM

**Q.** What about the TGI (DU-145 prostate) of the same compound?
**A.** > 100000 nM

**Q.** What about the GI50 (HT29 colon) of the same compound?
**A.** 1880 nM

**Q.** What about the TGI (HT29 colon) of the same compound?
**A.** 5600 nM

**Q.** And the GI50 (HCT-15 colon)?
**A.** 3740 nM

**Q.** What about the TGI (HCT-15 colon) of the same compound?
**A.** > 100000 nM

**Q.** What about the GI50 (HCT-116 colon) of the same compound?
**A.** 971 nM

**Q.** And the TGI (HCT-116 colon)?
**A.** 3160 nM

**Q.** What about the GI50 (SN12C renal) of the same compound?
**A.** 1510 nM

**Q.** And the TGI (SN12C renal)?
**A.** 4680 nM

**Q.** What about the GI50 (786-0 renal) of the same compound?
**A.** 1580 nM

**Q.** What about the TGI (786-0 renal) of the same compound?
**A.** 3040 nM

**Q.** What about the GI50 (K-562 leukemia) of the same compound?
**A.** 514 nM

**Q.** And the GI50 (CCRF-CEM leukemia)?
**A.** 1460 nM

**Q.** What about the TGI (CCRF-CEM leukemia) of the same compound?
**A.** 6220 nM

**Q.** And the GI50 (M14 melanoma)?
**A.** 999 nM

**Q.** And the TGI (M14 melanoma)?
**A.** 2520 nM

**Q.** What about the GI50 (MDA-MB-435) of the same compound?
**A.** 1360 nM

**Q.** And the TGI (MDA-MB-435)?
**A.** 2690 nM

**Q.** What about the GI50 (MDA-MB-231 breast) of the same compound?
**A.** 1400 nM

**Q.** What about the TGI (MDA-MB-231 breast) of the same compound?
**A.** 2760 nM

**Q.** What about the GI50 (OVCAR-8 ovarian) of the same compound?
**A.** 971 nM

**Q.** And the TGI (OVCAR-8 ovarian)?
**A.** 2350 nM

**Q.** What about the GI50 (KM12 colon) of the same compound?
**A.** 1520 nM

**Q.** And the TGI (KM12 colon)?
**A.** 3750 nM

**Q.** And the GI50 (SK-MEL-28 melanoma)?
**A.** 1290 nM

**Q.** What about the TGI (SK-MEL-28 melanoma) of the same compound?
**A.** 2840 nM

**Q.** And the GI50 (SNB-19 CNS)?
**A.** 920 nM

**Q.** And the TGI (SNB-19 CNS)?
**A.** 2340 nM

**Q.** What about the GI50 (HOP-92 NSCLC) of the same compound?
**A.** 883 nM

**Q.** And the TGI (HOP-92 NSCLC)?
**A.** 2500 nM

**Q.** And the GI50 (IGROV1 ovarian)?
**A.** 1230 nM

**Q.** What about the TGI (IGROV1 ovarian) of the same compound?
**A.** 2570 nM

**Q.** And the GI50 (NCI-H522 lung)?
**A.** 1480 nM

**Q.** What about the TGI (NCI-H522 lung) of the same compound?
**A.** 3030 nM

**Q.** What about the GI50 (MDA-MB-468 breast) of the same compound?
**A.** 399 nM

**Q.** What about the TGI (MDA-MB-468 breast) of the same compound?
**A.** 1490 nM

**Q.** And the GI50 (RPMI-8226 leukemia)?
**A.** 428 nM

**Q.** And the TGI (RPMI-8226 leukemia)?
**A.** 2180 nM

**Q.** What about the GI50 (BT-549 breast) of the same compound?
**A.** 1260 nM

**Q.** What about the TGI (BT-549 breast) of the same compound?
**A.** 3420 nM
